These results are taken from patent US11197840B2, “Methods of treating or alleviating mental disorders and associated symptoms” (The Florey Institute of Neuroscience and Mental Health, priority 2015, dated 2021).

The structures appear in SMILES notation.

Test [1] relates to male ArKO (aromatase knockout) mice. The test is described as follows: Water mist spray triggered grooming in male ArKO mice treated with 10-HDA. Type of test: in vivo, mouse. Here is the method: Specifically, male 3 month-old ArKO mice (n=5) were injected daily with 10-HDA (500 μg/kg) for 1 week. Similarly to Example 1 (see above), water mist spray triggered grooming was assessed before and after administration of 10-HDA treatment. During grooming assessment, each mouse was subjected to two squirts of sterile water mist spray and its grooming activity was recorded for 10 min immediately after the mist spray. Grooming duration was analyzed statistically by paired t test. […] Further grooming assessment was performed 5 days after the last administration of 10-HDA.

Test [2] concerns 5-hydroxytryptamine (serotonin) receptor 2C. The test is described as follows: Next Generation Sequencing (RNAseq) of primary cortical neurons: 5-hydroxytryptamine receptor 2C transcript. It counts as cell-based, mouse. To be noted: 1 mM 10-HDA vs DMSO, primary cortical neurons of C57Black 6 mice, harvested Day 7. As to the method: (§1) Foetal cortices of C57Black 6 mice (gestational days 15) were micro-dissected and subjected to trypsin digestion and mechanical trituration and centrifugation. The pelleted cells were resuspended in Neurobasal™ medium (NBM) containing 2.5% B-27 supplement, 1% penicillin, 1% streptomycin, 0.25% GlutaMAX-1 supplement and 10% dialysed foetal calf serum. Cells were seeded on poly-d-lysine (100 μg/ml) coated 12-well plates to a density of […]. Cultures were maintained at 37° C. in a humidified 5% CO2 and 95% air incubator and were subsequently cultured after day 1 in serum-free medium. After 24 hours, primary cortical neurons were treated with DMSO or 1 mM 10-HDA, and harvested for total RNA preparation on Day 7 for subsequent Next Generation Sequencing (RNAseq). […]
(§2) Total RNA was extracted from each sample using the PARIS kit (Ambion). The quality of RNA was assessed by LabChip® (Perkin Elmer). […] The libraries were sequenced with 50 bp single end reads using Illumina Hiseq and subjected to bioinformatic analyses. Sequencing data were assessed (FastQC) and aligned to mouse genome using Subjunc aligner within the Subread package. Sequencing data was summarised into Reads per transcript using Feature counts and the Gencode gene models for the mouse genome build. […]

A further test has as its system male ArKO mice. Kind of test: Behavioural disturbances of male ArKO mice (wheel running, compulsive grooming). Type of test: in vivo, mouse. The conditions noted are these: administration to male ArKO mice; general statement. Here is the method: Specifically, the grooming activity of each animal was analysed for 20 min after administration of water mist spray (a trigger for grooming). […] Compulsive grooming observed in ArKO represents an OCD-like repetitive behavioural disturbance in OCD-patients.

Another test has as its system dynamin 3. Kind of test: Next Generation Sequencing (RNAseq) of primary cortical neurons: dynamin 3 transcript. The conditions noted are these: 1 mM 10-HDA vs DMSO, primary cortical neurons of C57Black 6 mice, harvested Day 7. Type of test: cell-based, mouse. As to the method: as §1, §2

With `O=C(O)C=CCCCCCCCO` [10-HDA, 10-hydroxy-2-decenoic acid], the “grooming duration after the withdrawal period” value in test [1] (5 days after the last administration of 10-HDA, male ArKO mice) was “return to pre-treatment levels”. In addition, the “duration of grooming after administration of 10-HDA” value in test [1] (male 3 month-old ArKO mice, 500 μg/kg injected daily for 1 week, 10 min after water mist spray, before vs after treatment, paired t test p=0.0363) is given as “significant reduction”. Also, the “transcript expression level of 5-hydroxytryptamine (serotonin) receptor 2C” value in test [2] is “significantly upregulated”. In addition, in the test with male ArKO mice, the “behavioural disturbances, including wheel running and/or compulsive grooming” value is listed as “alleviated one or more of the behavioural disturbances”. In addition, the “transcript expression level of dynamin 3” value in the test with dynamin 3 is on record as “significantly upregulated”.
